According to patent US9457033B2, “Steroid alkaloids and uses thereof as antimicrobial agents against electron transport-deficient microbes and as potentiators for antimicrobial agents against pathogenic bacteria” (priority 2011, dated 2016):
≈ marks a conversion by molar mass, not a printed value. Like-named read-outs stand apart in the source and are kept apart here.

How the values were obtained:
S. aureus ATCC 29213 [1] = assay: MICs of control antibiotics for macromolecular biosynthesis assays; format: cell-based; conditions: Staphylococcus aureus, ATCC29213; ATCC 29213; data not shown; read-out: MIC
S. aureus CF1A-L = assay: MIC, microdilution in CAMHB 24 h; format: cell-based, Staphylococcus aureus; conditions: Staphylococcus aureus, CF1AL; CF1A-L; Human (CF lungs); read-out: MIC
S. aureus Newbould = assay: MIC, microdilution in CAMHB 24 h; format: cell-based, Staphylococcus aureus; conditions: Staphylococcus aureus; Newbould; Cow (mastitis); read-out: MIC
S. aureus Sa228c = assay: MIC, microdilution in CAMHB 24 h; format: cell-based, Staphylococcus aureus; conditions: Staphylococcus aureus, MRSA
S. aureus ATCC 43300 = assay: MIC, microdilution in CAMHB 24 h; format: cell-based, Staphylococcus aureus; conditions: Staphylococcus aureus, ATCC 43300 / MRSA; ATCC 43300; Human (HA); MRSA; read-out: MIC
S. aureus ATCC BAA-41 = assay: MIC, microdilution in CAMHB 24 h; format: cell-based, Staphylococcus aureus; conditions: Staphylococcus aureus, ATCC BAA-41 / MRSA; ATCC BAA-41; Human (HA); MRSA; read-out: MIC
S. aureus MRSA COL = assay: MIC, microdilution in CAMHB 24 h; format: cell-based, Staphylococcus aureus; conditions: Staphylococcus aureus; MRSA COL; Human (SSTI); read-out: MIC
S. aureus Sa220c = assay: MIC, microdilution in CAMHB 24 h; format: cell-based, Staphylococcus aureus; conditions: Staphylococcus aureus; Sa220c; Human (SSTI); MRSA; read-out: MIC
[2] = test system: S. aureus Newbould (normal strain); assay: MIC, microdilution in BHI 48 h; format: cell-based, Staphylococcus aureus; conditions: Staphylococcus aureus; Newbould, normal strain; read-out: MIC
S. aureus CF4B-L = assay: MIC, microdilution in CAMHB 24 h; format: cell-based, Staphylococcus aureus; conditions: Staphylococcus aureus, CF4BL; CF4B-L; Human (CF lungs); read-out: MIC
S. aureus CF2A-L = assay: MIC, microdilution in CAMHB 24 h; format: cell-based; conditions: Staphylococcus aureus, CF2AL; CF2A-L; Human (CF lungs); read-out: MIC
S. aureus SCV CF1D-S = assay: MIC, microdilution in BHI 48 h; format: cell-based, Staphylococcus aureus; conditions: Staphylococcus aureus, SCVCF1DS
S. aureus Mu50 = assay: MIC, microdilution in CAMHB 24 h; format: cell-based, Staphylococcus aureus; conditions: Staphylococcus aureus; Mu50; Human (SSTI); MRSA, VISA; read-out: MIC
[3] = test system: S. aureus CF07-L (normal strain); assay: MIC, microdilution in BHI 48 h (Examples 1, 3); format: cell-based, Staphylococcus aureus
S. aureus CF8E-L = assay: MIC, microdilution in CAMHB 24 h; format: cell-based, Staphylococcus aureus; conditions: Staphylococcus aureus, CF8EL; CF8E-L; Human (CF lungs); read-out: MIC
S. aureus CF35A-L = assay: MIC, microdilution in CAMHB 24 h; format: cell-based, Staphylococcus aureus; conditions: Staphylococcus aureus; CF35A-L; Human (CF lungs); MRSA; read-out: MIC
S. aureus SCV CF07-S = assay: MIC, microdilution in BHI 48 h (Examples 1, 3); format: cell-based, Staphylococcus aureus
S. aureus CF7A-L = assay: MIC, microdilution in CAMHB 24 h; format: cell-based, Staphylococcus aureus; conditions: Staphylococcus aureus; CF7A-L; Human (CF lungs); MRSA; read-out: MIC
S. aureus CF6B-L = assay: MIC, microdilution in CAMHB 24 h; format: cell-based, Staphylococcus aureus; conditions: Staphylococcus aureus, CF6BL; CF6B-L; Human (CF lungs); read-out: MIC
S. aureus CF9A-L = assay: MIC, microdilution in CAMHB 24 h; format: cell-based, Staphylococcus aureus; conditions: Staphylococcus aureus; CF9A-L; Human (CF lungs); MRSA; read-out: MIC
S. aureus 8325-4 = assay: MIC, microdilution in CAMHB 24 h; format: cell-based, Staphylococcus aureus; conditions: Staphylococcus aureus, 83254; 8325-4; Laboratory strain; read-out: MIC
S. aureus SHY97-3906 = assay: MIC, microdilution in CAMHB 24 h; format: cell-based, Staphylococcus aureus; conditions: Staphylococcus aureus, SHY973906; SHY97-3906; Cow (mastitis); read-out: MIC
S. aureus CF07-L = assay: MIC, microdilution in CAMHB 24 h; format: cell-based, Staphylococcus aureus; conditions: Staphylococcus aureus, CF07L; CF07-L; Human (CF lungs); read-out: MIC
S. aureus N315 = assay: microbe, parasite or virus in culture; format: cell-based, Staphylococcus aureus; conditions: Staphylococcus aureus, MRSA
S. aureus Newman = assay: MIC, microdilution in CAMHB 24 h; format: cell-based, Staphylococcus aureus; conditions: Staphylococcus aureus; Newman; Human (Osteo); read-out: MIC
[4] = test system: S. aureus CF1A-L (normal strain); assay: MIC, microdilution in BHI 48 h; format: cell-based, Staphylococcus aureus; conditions: Staphylococcus aureus; CF1A-L, normal strain; read-out: MIC
[5] = test system: S. aureus SCV NewbouldΔhemB; assay: MIC, microdilution in BHI 48 h; format: cell-based, Staphylococcus aureus
S. aureus MA078038 = assay: MIC, microdilution in CAMHB 24 h; format: cell-based, Staphylococcus aureus; conditions: Staphylococcus aureus; MA078038; Human (CA); MRSA; read-out: MIC
S. aureus ATCC 29213 [6] = assay: MIC, microdilution in CAMHB 24 h, with or without tomatidine/compound; format: cell-based, Staphylococcus aureus; conditions: ATCC 29213; for MIC: Staphylococcus aureus, ATCC29213
S. aureus ATCC 29213 [7] = assay: MIC, microdilution in BHI 48 h (Examples 1, 3); format: cell-based, Staphylococcus aureus
[8] = Staphylococcus aureus, CF07-L, normal strain, read-out: MIC
[9] = Staphylococcus aureus, SCVCF07S

Row | SMILES | MIC (S. aureus CF1A-L) [µg/mL] | MIC (S. aureus Newbould) [µg/mL] | MIC (S. aureus Sa228c) [µg/mL] | MIC (S. aureus ATCC 43300) [µg/mL] | MIC (S. aureus ATCC BAA-41) [µg/mL] | MIC (S. aureus MRSA COL) [µg/mL] | MIC (S. aureus Sa220c) [µg/mL] | MIC [2] [µg/mL] | MIC (S. aureus CF4B-L) [µg/mL] | MIC (S. aureus CF2A-L) [µg/mL] | MIC (S. aureus SCV CF1D-S) [µg/mL] | MIC (S. aureus Mu50) [µg/mL] | MIC ([3]; CF07-L + HQNO at 20 μg/ml) [µg/mL] | MIC ([3]; CF07-L, without HQNO) [µg/mL] | MIC [3, 8] [µg/mL] | MIC (S. aureus CF8E-L) [µg/mL] | MIC (S. aureus CF35A-L) [µg/mL] | MIC (S. aureus SCV CF07-S; CF07-S + HQNO at 20 μg/ml) [µg/mL] | MIC (S. aureus SCV CF07-S; CF07-S, without HQNO) [µg/mL] | MIC (S. aureus SCV CF07-S; [9]) [µg/mL] | other results
1 | CO[C@H]1/C=C/O[C@@]2(C)Oc3c(C)c(O)c4c(O)c(c(/C=N/N5CCN(C)CC5)c(O)c4c3C2=O)NC(=O)/C(C)=C\C=C\[C@H](C)[C@H](O)[C@@H](C)[C@@H](O)[C@@H](C)[C@H](OC(C)=O)[C@@H]1C [rifampicin] | – | – | – | – | – | – | – | – | – | – | – | – | – | – | – | – | – | – | – | – | MIC (S. aureus ATCC 29213 [1]): 0.008 to 0.015 µg/mL (≈ 0.00972 to 0.0182 µM)
2 | O=C(O)c1cn(C2CC2)c2cc(N3CCNCC3)c(F)cc2c1=O [Ciprofloxacin, ciprofloxacin] | 0.5 to 1 (≈ 1.51 to 3.02 µM) | 0.25 (≈ 0.754 µM) | > 64 | 0.5 (≈ 1.51 µM) | > 64 | 0.5 (≈ 1.51 µM) | 32 (≈ 96.6 µM) | 0.25 to 0.5 (≈ 0.754 to 1.51 µM) | 0.25 to 0.5 (≈ 0.754 to 1.51 µM) | 0.25 (≈ 0.754 µM) | 0.12 (≈ 0.362 µM) | 32 to 64 (≈ 96.6 to 193 µM) | 0.25 | 0.5 (≈ 1.51 µM) | 0.5 (≈ 1.51 µM) | 1 (≈ 3.02 µM) | > 64 | 0.12 | 0.12 (≈ 0.362 µM) | 0.12 (≈ 0.362 µM) | MIC (S. aureus CF7A-L): > 64 µg/mL; MIC (S. aureus CF6B-L): > 64 µg/mL; MIC (S. aureus CF9A-L): > 64 µg/mL; MIC (S. aureus 8325-4): 0.25 to 0.5 µg/mL (≈ 0.754 to 1.51 µM); MIC (S. aureus SHY97-3906): 0.25 µg/mL (≈ 0.754 µM); MIC (S. aureus CF07-L): 0.5 µg/mL (≈ 1.51 µM); MIC (S. aureus N315): 0.25 µg/mL (≈ 0.754 µM); MIC (S. aureus Newman): 0.25 µg/mL (≈ 0.754 µM); MIC [4]: 0.5 µg/mL (≈ 1.51 µM); MIC ([5]; Staphylococcus aureus): 0.12 to 0.25 µg/mL (≈ 0.362 to 0.754 µM); MIC (S. aureus MA078038): 16 µg/mL (≈ 48.3 µM)
3 | CC[C@H]1OC(=O)[C@H](C)[C@@H](O[C@H]2C[C@@](C)(OC)[C@@H](O)[C@H](C)O2)[C@H](C)[C@@H](O[C@@H]2O[C@H](C)C[C@H](N(C)C)[C@H]2O)[C@](C)(O)C[C@@H](C)C(=O)[C@H](C)[C@@H](O)[C@]1(C)O [Erythromycin, erythromycin] | 0.25 to 0.5 (≈ 0.341 to 0.681 µM) | 0.5 (≈ 0.681 µM) | > 64 | > 64 | > 64 | 0.5 (≈ 0.681 µM) | 0.5 to 1 (≈ 0.681 to 1.36 µM) | 0.25 (≈ 0.341 µM) | 0.5 (≈ 0.681 µM) | 0.5 (≈ 0.681 µM) | 0.12 (≈ 0.164 µM) | > 64 | 0.25 | 0.25 (≈ 0.341 µM) | 0.25 (≈ 0.341 µM) | 0.5 (≈ 0.681 µM) | > 64 | 0.06 to 0.12 | 0.12 (≈ 0.164 µM) | 0.12 (≈ 0.164 µM) | Fold (−TO/+TO) (S. aureus ATCC 29213 [6]; tomatidine at 8 μg/ml): 1 fold; MIC (S. aureus ATCC 29213 [6]; Human (SSTI), read-out: MIC): 0.5 µg/mL (≈ 0.681 µM); MIC (S. aureus ATCC 29213 [6]; absence of tomatidine, read-out: MIC −TO): 0.5 µg/mL (≈ 0.681 µM); MIC (S. aureus ATCC 29213 [6]; presence of tomatidine at 8 μg/ml, read-out: MIC +TO): 0.5 µg/mL; MIC (S. aureus ATCC 29213 [7]; ATCC 29213 + HQNO at 20 μg/ml): 0.25 µg/mL; MIC (S. aureus ATCC 29213 [7]; Staphylococcus aureus, ATCC29213, ATCC 29213, without HQNO, read-out: MIC): 0.12 to 0.25 µg/mL (≈ 0.164 to 0.341 µM); MIC (S. aureus ATCC 29213 [7]; Staphylococcus aureus, ATCC29213, ATCC 29213 in BHI, read-out: MIC): 0.12 to 0.25 µg/mL (≈ 0.164 to 0.341 µM); MIC (S. aureus ATCC 29213 [7]; Staphylococcus aureus, ATCC29213, ATCC 29213 in MHBCA, read-out: MIC): 0.12 to 0.5 µg/mL (≈ 0.164 to 0.681 µM); MIC (S. aureus CF7A-L): > 64 µg/mL; MIC (S. aureus CF6B-L): 0.5 to 2 µg/mL (≈ 0.681 to 2.73 µM); MIC (S. aureus CF9A-L): > 64 µg/mL; MIC (S. aureus 8325-4): 0.25 to 0.5 µg/mL (≈ 0.341 to 0.681 µM); MIC (S. aureus SHY97-3906): 0.12 to 0.25 µg/mL (≈ 0.164 to 0.341 µM); MIC (S. aureus CF07-L): 0.5 µg/mL (≈ 0.681 µM); MIC (S. aureus N315): > 64 µg/mL; MIC (S. aureus Newman): 0.5 µg/mL (≈ 0.681 µM); MIC [4]: 0.25 µg/mL (≈ 0.341 µM); MIC ([5]; NewbouldΔhemB, SCV, listed as ERY): >16 µg/mL; MIC ([5]; Staphylococcus aureus): > 16 µg/mL; MIC (S. aureus MA078038): 64 µg/mL (≈ 87.2 µM)
